How the values were obtained:
[1] = target: T1, human dopamine D3 receptors (Homo sapiens, UniProt P35462); assay: Receptor binding study, dopamine D3 receptor ([125I]-iodosulpride displacement); conditions: membranes of HEK-293 cells, 0.1 nM [125I]-iodosulpride, 25° C., 60 minutes
T1 construct: expressed in transfected cells; host or cells: HEK-293
Protocol: (§1) The substance to be tested was either dissolved in methanol/Chremophor® (BASF SE) or in dimethyl sulfoxide and then diluted with water to the desired concentration.
(§2) Each assay mixture was run in triplicate. • The incubation buffer contained 50 mM tris, 120 mM NaCl, 5 mM KCl, 2 mM CaCl2, 2 mM MgCl2 and 0.1% bovine serum albumin, 10 μM quinolone and 0.1% ascorbic acid (prepared fresh daily). […] Each assay mixture was run in triplicate. • The incubation buffer contained 50 mM tris, 120 mM NaCl, 5 mM KCl, 2 mM CaCl2, 2 mM MgCl2 and 0.1% bovine serum albumin. The buffer was adjusted to pH 7.4 with HCl. c) Measurement and Analysis: • After having been incubated at 25° C. for 60 minutes, the assay mixtures were filtered through a Whatman GF/B glass fiber filter under vacuum using a cell collecting device. The filters were transferred to scintillation viols using a filter transfer system. After 4 ml of Ultima Gold® (Packard) have been added, the samples were shaken for one hour and the radioactivity was then counted in a Beta-Counter (Packard, Tricarb 2000 or 2200CA).

[2] = Determination of the microsomal half-life / microsomal clearance, rat; assay type: in vitro ADME; conditions: rat liver microsomes, 0.5 μM test substance, 0.25 mg microsomal protein/ml, NADPH, 37° C.
Protocol: (§3) The metabolic stability of the compounds of the invention was determined in the following assay.
(§4) The test substances were incubated in a concentration of 0.5 μM as follows:
(§5) 0.5 μM test substance are preincubated together with liver microsomes from different species (from rat, human or other species) (0.25 mg of microsomal protein/ml) in 0.05 M potassium phosphate buffer of pH 7.4 in microtiter plates at 37° C. for 5 min. The reaction is started by adding NADPH (1 mg/mL). After 0, 5, 10, 15, 20 and 30 min, 50 μl aliquots are removed, and the reaction is immediately stopped and cooled with the same volume of acetonitrile. The samples are frozen until analyzed. The remaining concentration of undegraded test substance is determined by MSMS. The half-life (T½) is determined from the gradient of the signal of test substance/unit time plot, it being possible to calculate the half-life of the test substance, assuming first order kinetics, from the decrease in the concentration of the compound with time. The microsomal clearance (mCl) is calculated from mCl=ln 2/T½/(content of microsomal protein in mg/ml)×1000 [ml/min/mg] (modified from references: Di, The Society for Biomoleculur Screening, 2003, 453-462; Obach, DMD, 1999 vol 27. N 11, 1350-1359).

hERG cardiac K+ channel = target: T2, hERG cardiac K+ channel (Homo sapiens, UniProt Q12809); assay: Blocking the hERG channel ([3H]dofetilide displacement); assay type: binding; conditions: membrane homogenate from HEK 293 cells expressing hERG
T2 construct: expressed in transfected cells; host or cells: HEK-293
T2 sequence (Q12809 whole entry): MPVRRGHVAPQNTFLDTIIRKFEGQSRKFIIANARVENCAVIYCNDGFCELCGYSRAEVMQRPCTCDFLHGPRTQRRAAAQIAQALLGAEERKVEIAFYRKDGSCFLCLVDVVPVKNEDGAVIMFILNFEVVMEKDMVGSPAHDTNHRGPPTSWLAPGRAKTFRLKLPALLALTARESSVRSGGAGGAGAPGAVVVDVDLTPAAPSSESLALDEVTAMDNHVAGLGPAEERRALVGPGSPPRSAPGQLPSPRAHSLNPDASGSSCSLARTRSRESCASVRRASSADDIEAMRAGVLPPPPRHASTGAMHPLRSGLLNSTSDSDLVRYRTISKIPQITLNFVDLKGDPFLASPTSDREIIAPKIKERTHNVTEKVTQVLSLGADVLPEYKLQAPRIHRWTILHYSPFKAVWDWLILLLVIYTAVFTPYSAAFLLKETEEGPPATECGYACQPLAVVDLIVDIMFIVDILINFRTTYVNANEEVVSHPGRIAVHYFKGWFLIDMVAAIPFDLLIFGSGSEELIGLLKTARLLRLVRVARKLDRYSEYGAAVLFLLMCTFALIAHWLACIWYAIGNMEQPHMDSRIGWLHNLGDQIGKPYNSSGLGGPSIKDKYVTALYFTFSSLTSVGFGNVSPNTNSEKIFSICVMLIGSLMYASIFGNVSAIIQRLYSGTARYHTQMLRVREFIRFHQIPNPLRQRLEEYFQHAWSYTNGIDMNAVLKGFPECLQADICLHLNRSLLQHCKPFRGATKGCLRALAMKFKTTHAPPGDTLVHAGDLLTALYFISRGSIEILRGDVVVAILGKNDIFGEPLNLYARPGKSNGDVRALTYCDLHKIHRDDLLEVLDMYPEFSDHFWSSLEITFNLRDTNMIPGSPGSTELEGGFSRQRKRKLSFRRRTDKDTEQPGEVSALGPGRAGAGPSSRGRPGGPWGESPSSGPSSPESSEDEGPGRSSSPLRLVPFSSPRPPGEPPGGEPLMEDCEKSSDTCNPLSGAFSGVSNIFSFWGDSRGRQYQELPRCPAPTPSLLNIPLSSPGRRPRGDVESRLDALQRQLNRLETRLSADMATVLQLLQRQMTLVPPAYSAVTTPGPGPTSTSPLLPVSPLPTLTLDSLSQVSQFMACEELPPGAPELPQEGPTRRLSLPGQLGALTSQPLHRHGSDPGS
Protocol: The binding affinity of test drugs for the hERG cardiac K^+ channel was determined by their ability to displace tritiated dofetilide (a class III antiarrhythmic drug and potent hERG blocker) in membrane homogenates from HEK-293 cells heterogeneously expressing the hERG channel. The assay was performed as previously described G. J. Diaz et al., Journal of Pharmacological and Toxicological Methods, 50 (2004), 187-199). For this, drug dilutions were prepared from 10 mM DMSO stocks and the following were added to a 96-well polystyrene plate (Perkin-Elmer Optiplate): 20 μl of assay binding buffer (for total bounds), or 1 μM astemizole (for non-specific bounds), or test drug, 50 μl of [^3H]dofetilide (20 nM, ˜80 Ci/mmol specific activity), and 130 μl of membrane homogenate from HEK 293 cells stably transfected with hERG K^+ channels (final protein concentration of 30 μg per well). The plates were incubated at ambient temperature for 45 min, aspirated onto GF/B filter plates (Perkin-Elmer), and washed with 2 ml of cold wash buffer. After allowing the plates to dry, 50 μl of scintillant (Perkin-Elmer MicroScint 20) were added to each well and the radioactivity was counted in a Perkin-Elmer Topcount NXT scintillation counter. IC50 determinations were calculated from competition curves using 6 drug concentrations, half-log apart, starting at a high concentration of 100 μM (final assay DMSO concentration=1%) using a four-parameter logistic equation. The results are given as IC50 value.

[3] = target: T3, human dopamine D2L receptors (long isoform) (Homo sapiens, UniProt P14416); assay: Receptor binding study, dopamine D2L receptor ([125I]iodospiperone displacement), selectivity vs D3; conditions: selectivity ratio, HEK-293 membranes
T3 construct: expressed in transfected cells; host or cells: HEK-293
T3 sequence (P14416 whole entry, canonical isoform): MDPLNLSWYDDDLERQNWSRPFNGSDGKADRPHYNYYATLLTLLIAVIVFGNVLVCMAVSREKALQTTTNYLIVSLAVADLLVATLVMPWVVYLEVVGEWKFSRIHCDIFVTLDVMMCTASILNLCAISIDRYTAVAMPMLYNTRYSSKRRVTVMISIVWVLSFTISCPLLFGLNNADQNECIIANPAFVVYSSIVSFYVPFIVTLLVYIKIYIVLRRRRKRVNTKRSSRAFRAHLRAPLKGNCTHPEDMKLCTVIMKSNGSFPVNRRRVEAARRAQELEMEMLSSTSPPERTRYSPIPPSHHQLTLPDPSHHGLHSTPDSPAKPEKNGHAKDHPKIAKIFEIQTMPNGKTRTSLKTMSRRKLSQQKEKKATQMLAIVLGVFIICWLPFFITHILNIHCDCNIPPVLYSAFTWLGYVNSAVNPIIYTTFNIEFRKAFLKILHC
Protocol: as §1, §2

[4] = Determination of the microsomal half-life / microsomal clearance, human; assay type: in vitro ADME; conditions: human liver microsomes, 0.5 μM test substance, 0.25 mg microsomal protein/ml, NADPH, 37° C.
Protocol: as §3, §4, §5

T1 sequence (P35462 whole entry): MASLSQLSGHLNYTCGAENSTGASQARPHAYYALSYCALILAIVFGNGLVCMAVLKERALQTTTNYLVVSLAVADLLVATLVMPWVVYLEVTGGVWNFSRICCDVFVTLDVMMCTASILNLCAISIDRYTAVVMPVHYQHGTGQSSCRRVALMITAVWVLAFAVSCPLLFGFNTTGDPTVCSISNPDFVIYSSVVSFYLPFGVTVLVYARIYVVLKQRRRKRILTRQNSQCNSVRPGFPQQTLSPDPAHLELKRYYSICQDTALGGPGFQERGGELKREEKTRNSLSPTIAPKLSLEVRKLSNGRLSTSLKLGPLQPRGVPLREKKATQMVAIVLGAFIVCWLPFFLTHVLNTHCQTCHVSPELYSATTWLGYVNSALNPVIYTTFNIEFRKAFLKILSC

Compound	Ki [1] [nM]	Rat mCl [2]	IC50 (hERG cardiac K+ channel) [nM]	D2/D3 (Ki (D2L)/Ki (D3)) [3]	Human mCl [4]
COCCc1cc(N2CCN(CC[C@H]3CC[C@H](NC(C)=O)CC3)CC2)nc(C(C)(C)C)n1 [Compound 1, trans-N-[4-(2-{4-[2-tert-Butyl-6-(2-methoxy-ethyl)-pyrimidin-4-yl]-piperazin-1-yl}-ethyl)-cyclohexyl]-acetamide]	< 10	+ (+: 20-120 μl min^−1 mg^−1)	> 10000	+++ (+++>50)	+ (+: 20-120 μl min^−1 mg^−1)
COCc1cc(N2CCN(CC[C@H]3CC[C@H](NC(C)=O)CC3)CC2)nc(C(C)(C)C)n1 [Compound 2, trans-N-[4-(2-{4-[2-tert-butyl-6-(methoxymethyl)-pyrimidin-4-yl]-piperazin-1-yl}-ethyl)-cyclohexyl]-acetamide]	< 10	+ (+: 20-120 μl min^−1 mg^−1)	> 10000	+++ (+++>50)	+ (+: 20-120 μl min^−1 mg^−1)
COCCc1cc(N2CCN(CC[C@H]3CC[C@H](NC(C)=O)CC3)C[C@H]2C)nc(C(C)(C)C)n1 [Compound 6, trans-N-[4-(2-{(3R)-4-[2-tert-Butyl-6-(2-methoxy-ethyl)-pyrimidin-4-yl]-3-methyl-piperazin-1-yl}-ethyl)-cyclohexyl]-acetamide]	< 10	∘ (∘: >120 μl min^−1 mg^−1)	> 10000	+++ (+++>50)	+ (+: 20-120 μl min^−1 mg^−1)
CC(=O)N[C@H]1CC[C@H](CCN2CCN(c3cc(CO)nc(C(C)(C)C)n3)CC2)CC1 [Compound 22, trans-N-[4-[2-[4-[2-tert-butyl-6-(hydroxymethyl)pyrimidin-4-yl]piperazin-1-yl]ethyl]cyclohexyl]acetamide]	< 50	+ (+: 20-120 μl min^−1 mg^−1)	–	+++ (+++>50)	+ (+: 20-120 μl min^−1 mg^−1)
CC(C)(C)c1nc(CCO)cc(N2CCN(CC[C@H]3CC[C@H](NC=O)CC3)CC2)n1 [Compound 23, trans-N-[4-[2-[4-[2-tert-butyl-6-(2-hydroxyethyl)pyrimidin-4-yl]piperazin-1-yl]ethyl]cyclohexyl]formamide]	< 50	+ (+: 20-120 μl min^−1 mg^−1)	–	+++ (+++>50)	+ (+: 20-120 μl min^−1 mg^−1)
COCCc1cc(N2CCN(CC[C@H]3CC[C@H](NC=O)CC3)[C@H](C)C2)nc(C(C)(C)C)n1 [Compound 24, trans-N-[4-[2-[(2R)-4-[2-tert-butyl-6-(2-methoxyethyl)pyrimidin-4-yl]-2-methyl-piperazin-1-yl]ethyl]cyclohexyl]formamide]	< 50	+ (+: 20-120 μl min^−1 mg^−1)	–	+++ (+++>50)	+ (+: 20-120 μl min^−1 mg^−1)
CC(=O)N[C@H]1CC[C@H](CCN2CCN(c3cc(CCO)nc(C(C)(C)C)n3)[C@@H](C)C2)CC1 [Compound 25, trans-N-[4-[2-[(3S)-4-[2-tert-butyl-6-(2-hydroxyethyl)pyrimidin-4-yl]-3-methyl-piperazin-1-yl]ethyl]cyclohexyl]acetamide]	< 10	+ (+: 20-120 μl min^−1 mg^−1)	–	+++ (+++>50)	+ (+: 20-120 μl min^−1 mg^−1)
COCCc1cc(N2CCN(CCC3CC(NC=O)C3)C[C@@H]2C)nc(C(C)(C)C)n1 (stereo partly drawn) [Compound 28, N-[3-[2-[(3S)-4-[2-tert-butyl-6-(2-methoxyethyl)pyrimidin-4-yl]-3-methyl-piperazin-1-yl]ethyl]cyclobutyl]formamide]	< 50	+ (+: 20-120 μl min^−1 mg^−1)	–	+ (+>10)	+ (+: 20-120 μl min^−1 mg^−1)
CC(=O)N[C@H]1CC[C@H](CCN2CCN(c3cc(CCO)nc(C(C)(C)C)n3)[C@H](C)C2)CC1 [Compound 29, trans-N-[4-[2-[(3R)-4-[2-tert-butyl-6-(2-hydroxyethyl)pyrimidin-4-yl]-3-methyl-piperazin-1-yl]ethyl]cyclohexyl]acetamide]	< 50	+ (+: 20-120 μl min^−1 mg^−1)	–	+++ (+++>50)	+ (+: 20-120 μl min^−1 mg^−1)
COCCc1cc(N2CCN(CC[C@H]3C[C@H](NC(C)=O)C3)C[C@@H]2C)nc(C(C)(C)C)n1 [Compound 30, trans-N-[3-[2-[(3S)-4-[2-tert-butyl-6-(2-methoxyethyl)pyrimidin-4-yl]-3-methyl-piperazin-1-yl]ethyl]cyclobutyl]acetamide]	< 50	+ (+: 20-120 μl min^−1 mg^−1)	–	++ (++>20)	+ (+: 20-120 μl min^−1 mg^−1)
COCCc1cc(N2CCN(CC[C@H]3C[C@@H](NC(C)=O)C3)C[C@@H]2C)nc(C(C)(C)C)n1 [Compound 31, cis-N-[3-[2-[(3S)-4-[2-tert-butyl-6-(2-methoxyethyl)pyrimidin-4-yl]-3-methyl-piperazin-1-yl]ethyl]cyclobutyl]acetamide]	< 10	+ (+: 20-120 μl min^−1 mg^−1)	–	+ (+>10)	+ (+: 20-120 μl min^−1 mg^−1)
CC(=O)N[C@H]1CC[C@H](CCN2CCN(c3cc(CCOC(F)F)nc(C(C)(C)C)n3)[C@@H](C)C2)CC1 [Compound 32, trans-N-[4-[2-[(3S)-4-[2-tert-butyl-6-[2-(difluoromethoxy)ethyl]pyrimidin-4-yl]-3-methyl-piperazin-1-yl]ethyl]cyclohexyl]acetamide]	< 10	∘ (∘: >120 μl min^−1 mg^−1)	–	+++ (+++>50)	+ (+: 20-120 μl min^−1 mg^−1)
trans-N-[4-[2-[4-(2-tert-butyl-6-tetrahydrofuran-3-yl-pyrimidin-4-yl)piperazin-1-yl]ethyl]cyclohexyl]formamide [Compound 27]	< 10	+ (+: 20-120 μl min^−1 mg^−1)	–	+++ (+++>50)	+ (+: 20-120 μl min^−1 mg^−1)

— patent publication US9376396B2, “Acylaminocycloalkyl compounds suitable for treating disorders that respond to modulation of dopamine D3 receptor” (AbbVie Deutschland GmbH & Co. KG, priority 2012, dated 2016)
